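Grown in 96-well plates, cells were treated for 48 hours with each compound at five concentrations. Insufficient inhibition: endpoint recorded as highest concentration tested. GI50: concentration for 50% inhibition of growth.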 Activity calls are given as the source filed them. Cut-off read from the data, not from the text of the source: active = GI50 up to about 1.1 µM and inactive = higher.
Columns and labels:
Assay in all cases: growth of human tumour cells (NCI), 48 h
RXF 393 = tested on: RXF 393
HCC 2998 = tested on: HCC 2998
HOP-62 = tested on: HOP-62
NCI-H226 = tested on: NCI-H226
SNB-75 = tested on: SNB-75
Malme-3M = tested on: Malme-3M
HL-60 = tested on: HL-60
NCI-H23 = tested on: NCI-H23
RPMI-8226 = tested on: RPMI-8226
ACHN = tested on: ACHN
SW-620 = tested on: SW-620
SK-MEL-5 = tested on: SK-MEL-5
SF-539 = tested on: SF-539
TK-10 = tested on: TK-10
Hs-578T = tested on: Hs-578T
UO-31 = tested on: UO-31
HCT-15 = tested on: HCT-15
M14 = tested on: M14
UACC-62 = tested on: UACC-62
A498 = tested on: A498

## O=C(O)Cc1cccc2c1OC(c1ccccc1)C(Cl)(C(=O)c1ccccc1)C2=O (stereo not drawn)
RXF 393
  GI50: > 10 µM (inactive)
HCC 2998
  GI50: 13.2 µM (inactive)
HOP-62
  GI50: 20.3 µM (inactive)
NCI-H226
  GI50: 30.1 µM (inactive)
SNB-75
  GI50: 19.1 µM (inactive)
Malme-3M
  GI50: 18.2 µM (inactive)
HL-60
  GI50: 11.9 µM (inactive)
NCI-H23
  GI50: 16.1 µM (inactive)
RPMI-8226
  GI50: 17.4 µM (inactive)
ACHN
  GI50: 14 µM (inactive)
SW-620
  GI50: 9.33 µM (inactive)
SK-MEL-5
  GI50: 15.3 µM (inactive)
SF-539
  GI50: 31.6 µM (inactive)
TK-10
  GI50: 21.8 µM (inactive)
Hs-578T
  GI50: 35 µM (inactive)
UO-31
  GI50: 17.4 µM (inactive)
HCT-15
  GI50: 14.4 µM

## O=C(N/N=C\c1ccc2ccccc2c1)Nc1ccc([N+](=O)[O-])cc1
RXF 393
  GI50: 26.4 µM (inactive)
HCC 2998
  GI50: 22.1 µM (inactive)
HOP-62
  GI50: 27 µM (inactive)
NCI-H226
  GI50: 29.4 µM (inactive)
M14
  GI50: 32.2 µM (inactive)
SNB-75
  GI50: 42.4 µM (inactive)
Malme-3M
  GI50: 27.7 µM (inactive)
HL-60
  GI50: > 57.9 µM (inactive)
NCI-H23
  GI50: 22.2 µM (inactive)
RPMI-8226
  GI50: 15.1 µM (inactive)
UACC-62
  GI50: 24.7 µM (inactive)
ACHN
  GI50: 24.6 µM (inactive)
SW-620
  GI50: 32.7 µM (inactive)
SK-MEL-5
  GI50: 22.7 µM (inactive)
SF-539
  GI50: 19.5 µM (inactive)
TK-10
  GI50: 18.9 µM (inactive)
Hs-578T
  GI50: 32.9 µM (inactive)
UO-31
  GI50: 23.2 µM (inactive)
HCT-15
  GI50: 16.8 µM

## C=C(C)COC1CCCCO1 (stereo not drawn)
A498
  GI50: > 100 µM (inactive)
HCC 2998
  GI50: > 100 µM (inactive)
HOP-62
  GI50: > 100 µM (inactive)
NCI-H226
  GI50: > 100 µM (inactive)
M14
  GI50: > 100 µM (inactive)
SNB-75
  GI50: > 100 µM (inactive)
Malme-3M
  GI50: > 100 µM (inactive)
HL-60
  GI50: > 100 µM (inactive)
NCI-H23
  GI50: > 100 µM (inactive)
RPMI-8226
  GI50: > 100 µM (inactive)
UACC-62
  GI50: > 100 µM (inactive)
ACHN
  GI50: > 100 µM (inactive)
SW-620
  GI50: > 100 µM (inactive)
SK-MEL-5
  GI50: > 100 µM (inactive)
SF-539
  GI50: > 100 µM (inactive)
TK-10
  GI50: > 100 µM (inactive)
Hs-578T
  GI50: > 100 µM (inactive)
UO-31
  GI50: > 100 µM (inactive)
HCT-15
  GI50: > 100 µM

## CC(C)(O)/C1=C/C=C/CCCCCCCCCC1
A498
  GI50: > 100 µM (inactive)
HCC 2998
  GI50: > 100 µM (inactive)
HOP-62
  GI50: > 100 µM (inactive)
NCI-H226
  GI50: > 100 µM (inactive)
M14
  GI50: > 100 µM (inactive)
SNB-75
  GI50: 0.387 µM (active)
Malme-3M
  GI50: > 100 µM (inactive)
HL-60
  GI50: 28.9 µM (inactive)
NCI-H23
  GI50: > 100 µM (inactive)
RPMI-8226
  GI50: 33.3 µM (inactive)
UACC-62
  GI50: 90.2 µM (inactive)
ACHN
  GI50: > 100 µM (inactive)
SW-620
  GI50: > 100 µM (inactive)
SK-MEL-5
  GI50: 0.246 µM (active)
TK-10
  GI50: > 100 µM (inactive)
Hs-578T
  GI50: 1.19 µM (inactive)
UO-31
  GI50: 51.9 µM (inactive)
HCT-15
  GI50: > 100 µM

## COc1ccc(NC(=S)N/N=C/c2cccc(C)n2)cc1
A498
  GI50: 18.8 µM (inactive)
HCC 2998
  GI50: 8.41 µM (inactive)
HOP-62
  GI50: 4.32 µM (inactive)
NCI-H226
  GI50: 10.2 µM (inactive)
M14
  GI50: 2.4 µM (inactive)
SNB-75
  GI50: 4.93 µM (inactive)
Malme-3M
  GI50: 3.13 µM (inactive)
HL-60
  GI50: 1.84 µM (inactive)
NCI-H23
  GI50: 6.05 µM (inactive)
RPMI-8226
  GI50: 3.68 µM (inactive)
UACC-62
  GI50: 2.24 µM (inactive)
ACHN
  GI50: 2.83 µM (inactive)
SW-620
  GI50: 2.86 µM (inactive)
SK-MEL-5
  GI50: 3.95 µM (inactive)
SF-539
  GI50: 6.12 µM (inactive)
TK-10
  GI50: 8.13 µM (inactive)
Hs-578T
  GI50: 24.7 µM (inactive)
UO-31
  GI50: 3.33 µM (inactive)
HCT-15
  GI50: 2.31 µM

## Cn1ccc(C(=O)NCCOCCNC(=O)c2ccn(C)c(=O)c2O)c(O)c1=O
A498
  GI50: > 100 µM (inactive)
HCC 2998
  GI50: > 100 µM (inactive)
NCI-H226
  GI50: > 100 µM (inactive)
Malme-3M
  GI50: > 100 µM (inactive)
NCI-H23
  GI50: > 100 µM (inactive)
RPMI-8226
  GI50: > 100 µM (inactive)
UACC-62
  GI50: > 100 µM (inactive)
ACHN
  GI50: > 100 µM (inactive)
SW-620
  GI50: > 100 µM (inactive)
SK-MEL-5
  GI50: > 100 µM (inactive)
TK-10
  GI50: > 100 µM (inactive)
Hs-578T
  GI50: > 100 µM (inactive)
UO-31
  GI50: > 100 µM (inactive)
HCT-15
  GI50: > 100 µM

## CC1=C/C(O)CC(=O)Cc2nc(co2)C(=O)N2CCC=C2C(=O)OC(C(C)C)C(C)/C=C\C(=O)NC/C=C\1 (stereo not drawn)
A498
  GI50: 23.6 µM (inactive)
HCC 2998
  GI50: 19.1 µM (inactive)
HOP-62
  GI50: 31.5 µM (inactive)
NCI-H226
  GI50: 17.7 µM (inactive)
M14
  GI50: 17.3 µM (inactive)
SNB-75
  GI50: 11.3 µM (inactive)
Malme-3M
  GI50: 11.7 µM (inactive)
HL-60
  GI50: 20.3 µM (inactive)
NCI-H23
  GI50: 17.1 µM (inactive)
RPMI-8226
  GI50: 12.9 µM (inactive)
UACC-62
  GI50: 16 µM (inactive)
ACHN
  GI50: 12.5 µM (inactive)
SW-620
  GI50: 18.1 µM (inactive)
SK-MEL-5
  GI50: 33.4 µM (inactive)
SF-539
  GI50: 30.1 µM (inactive)
TK-10
  GI50: 31.6 µM (inactive)
Hs-578T
  GI50: 20 µM (inactive)
HCT-15
  GI50: 19.8 µM

## CN1CCN(CCCN2c3ccccc3Sc3ccc(C(F)(F)F)cc32)CC1
A498
  GI50: 12.6 µM (inactive)
HOP-62
  GI50: 11.3 µM (inactive)
NCI-H226
  GI50: 13.2 µM (inactive)
M14
  GI50: 1.72 µM (inactive)
SNB-75
  GI50: 4.31 µM (inactive)
Malme-3M
  GI50: 1.45 µM (inactive)
HL-60
  GI50: 4.58 µM (inactive)
NCI-H23
  GI50: 11.1 µM (inactive)
UACC-62
  GI50: 2.06 µM (inactive)
ACHN
  GI50: 10.7 µM (inactive)
SK-MEL-5
  GI50: 1.91 µM (inactive)
SF-539
  GI50: 4.65 µM (inactive)
Hs-578T
  GI50: 3.4 µM (inactive)
UO-31
  GI50: 6.32 µM (inactive)
HCT-15
  GI50: 4.33 µM

## COc1ccccc1Nc1nc(NNC(=O)Cc2ccccc2)nc(NNC(=O)c2ccncc2)n1
HCC 2998
  GI50: > 10 µM (inactive)
HOP-62
  GI50: > 10 µM (inactive)
M14
  GI50: > 10 µM (inactive)
SNB-75
  GI50: > 10 µM (inactive)
Malme-3M
  GI50: > 10 µM (inactive)
HL-60
  GI50: > 10 µM (inactive)
NCI-H23
  GI50: > 10 µM (inactive)
RPMI-8226
  GI50: > 10 µM (inactive)
UACC-62
  GI50: > 10 µM (inactive)
SW-620
  GI50: > 10 µM (inactive)
SK-MEL-5
  GI50: > 10 µM (inactive)
SF-539
  GI50: > 10 µM (inactive)
TK-10
  GI50: > 10 µM (inactive)
Hs-578T
  GI50: 9.04 µM (inactive)
HCT-15
  GI50: > 10 µM

## C=C1C(=O)O[C@H]2C[C@@]3(COC(C)=O)C=COC=C(COC(=O)C(C)C)C3CC12 (stereo partly drawn)
RXF 393
  GI50: 67.6 µM (inactive)
HCC 2998
  GI50: 51.4 µM (inactive)
HOP-62
  GI50: > 100 µM (inactive)
NCI-H226
  GI50: > 100 µM (inactive)
SNB-75
  GI50: 12.2 µM (inactive)
Malme-3M
  GI50: > 100 µM (inactive)
HL-60
  GI50: 23.8 µM (inactive)
NCI-H23
  GI50: > 100 µM (inactive)
RPMI-8226
  GI50: 21.5 µM (inactive)
UACC-62
  GI50: 13.2 µM (inactive)
ACHN
  GI50: > 100 µM (inactive)
SW-620
  GI50: 46.1 µM (inactive)
SK-MEL-5
  GI50: > 100 µM (inactive)
SF-539
  GI50: > 100 µM (inactive)
TK-10
  GI50: > 100 µM (inactive)
Hs-578T
  GI50: > 100 µM (inactive)
UO-31
  GI50: > 100 µM (inactive)
HCT-15
  GI50: > 100 µM

## COC(=O)C1=C(OC)c2cc3c(cc2C(c2cc(OC)c(OC)c(OC)c2)C1C(=O)OC)OCO3 (stereo not drawn)
A498
  GI50: 43.2 µM (inactive)
RXF 393
  GI50: 49 µM (inactive)
HCC 2998
  GI50: > 100 µM (inactive)
HOP-62
  GI50: > 100 µM (inactive)
NCI-H226
  GI50: > 100 µM (inactive)
M14
  GI50: > 100 µM (inactive)
SNB-75
  GI50: > 100 µM (inactive)
Malme-3M
  GI50: > 100 µM (inactive)
HL-60
  GI50: > 100 µM (inactive)
NCI-H23
  GI50: > 100 µM (inactive)
RPMI-8226
  GI50: 40.6 µM (inactive)
UACC-62
  GI50: > 100 µM (inactive)
ACHN
  GI50: > 100 µM (inactive)
SW-620
  GI50: > 100 µM (inactive)
SK-MEL-5
  GI50: > 100 µM (inactive)
SF-539
  GI50: > 100 µM (inactive)
TK-10
  GI50: > 100 µM (inactive)
UO-31
  GI50: > 100 µM (inactive)
HCT-15
  GI50: > 100 µM

## COc1ccc(-c2cc(=O)c3c(O)c(OC)c(OC)c(OC)c3o2)cc1OC [5-DEMETHYLNOBILETIN]
A498
  GI50: > 100 µM (inactive)
HCC 2998
  GI50: > 100 µM (inactive)
HOP-62
  GI50: 19.5 µM (inactive)
NCI-H226
  GI50: > 100 µM (inactive)
M14
  GI50: > 100 µM (inactive)
Malme-3M
  GI50: > 100 µM (inactive)
HL-60
  GI50: > 100 µM (inactive)
NCI-H23
  GI50: > 100 µM (inactive)
UACC-62
  GI50: > 100 µM (inactive)
ACHN
  GI50: > 100 µM (inactive)
SW-620
  GI50: > 10 µM (inactive)
SK-MEL-5
  GI50: 27.4 µM (inactive)
SF-539
  GI50: 86.5 µM (inactive)
TK-10
  GI50: 67.1 µM (inactive)
Hs-578T
  GI50: 12.6 µM (inactive)
UO-31
  GI50: > 100 µM (inactive)
HCT-15
  GI50: > 100 µM
